SMILES strings stand for the structures.

Holding throughout (assay): biochemical
What all share (parameters): KINOMEscan competition binding panel (Eurofins DiscoverX), single concentration, % inhibition
Settings in all cases: read-out: 7 at 1 µM % inhibition

Test [1] has as its target T1, ABL1(M351T)-phosphorylated (Homo sapiens, UniProt P00519, M351T).
T1 construct: phosphorylated
The method, boiled down:
(§1)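 Binding was profiled in the KINOMEscan panel of over 400 human kinases, with each compound tested at a single concentration of 1 µM to map selectivity.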

Test [2] deals with T2, ABL1(T315I)-phosphorylated (Homo sapiens, UniProt P00519, T315I).
T2 construct: phosphorylated
The method, boiled down: as §1

The next test has as its target CDK3 (Homo sapiens, UniProt Q00526). The method, boiled down: as §1
The target in a further test is CDK7 (Homo sapiens, UniProt P50613). The method, boiled down: as §1
The next test has as its target CDK8 (Homo sapiens, UniProt P49336). The method, boiled down:
as §1

For another test, the target named is CSK (Homo sapiens, UniProt P41240). An outline of the steps: as §1
The target in the next test is CSNK1A1 (Homo sapiens, UniProt P48729). An outline of the steps: as §1
The target of another test is CSNK1G3 (Homo sapiens, UniProt Q9Y6M4). The method, boiled down: as §1
Another test addresses DAPK3 (Homo sapiens, UniProt O43293). An outline of the steps:
as §1

Test [3] addresses EGFR(L747-E749del, A750P) (Homo sapiens, UniProt P00533, A750P/DEL747-749). The method, boiled down: as §1
The target in another test is EPHA2 (Homo sapiens, UniProt P29317). The method, boiled down: as §1
A further test has as its target T3, FAK (Homo sapiens, UniProt Q05397).
T3 construct: gene PTK2
An outline of the steps:
as §1

A further test concerns the target FGR (Homo sapiens, UniProt P09769). The method, boiled down:
as §1

A further test concerns the target LTK (Homo sapiens, UniProt P29376). An outline of the steps:
as §1

The target in the next test is MAP4K2 (Homo sapiens, UniProt Q12851). The method, boiled down:
as §1

A further test has as its target MAP4K4 (Homo sapiens, UniProt O95819). An outline of the steps:
as §1

For another test, the target named is NLK (Homo sapiens, UniProt Q9UBE8). An outline of the steps:
as §1

For the next test, the target named is PAK4 (Homo sapiens, UniProt O96013). An outline of the steps:
as §1

In another test the target is T4, PAK7 (Homo sapiens, UniProt Q9P286).
T4 construct: gene PAK5
The method, boiled down:
as §1

A further test has as its target PIK3CA(C420R) (Homo sapiens, UniProt P42336, C420R). An outline of the steps: as §1
The target of the next test is RIPK2 (Homo sapiens, UniProt O43353). The method, boiled down: as §1
The next test has as its target SLK (Homo sapiens, UniProt Q9H2G2). The method, boiled down:
as §1

In a further test the target is TRPM6 (Homo sapiens, UniProt Q9BX84). The method, boiled down: as §1
The target of the next test is T5, p38-alpha (Homo sapiens, UniProt Q16539).
T5 construct: gene MAPK14
The method, boiled down: as §1

Chain of MAP4K4 (O95819 whole entry): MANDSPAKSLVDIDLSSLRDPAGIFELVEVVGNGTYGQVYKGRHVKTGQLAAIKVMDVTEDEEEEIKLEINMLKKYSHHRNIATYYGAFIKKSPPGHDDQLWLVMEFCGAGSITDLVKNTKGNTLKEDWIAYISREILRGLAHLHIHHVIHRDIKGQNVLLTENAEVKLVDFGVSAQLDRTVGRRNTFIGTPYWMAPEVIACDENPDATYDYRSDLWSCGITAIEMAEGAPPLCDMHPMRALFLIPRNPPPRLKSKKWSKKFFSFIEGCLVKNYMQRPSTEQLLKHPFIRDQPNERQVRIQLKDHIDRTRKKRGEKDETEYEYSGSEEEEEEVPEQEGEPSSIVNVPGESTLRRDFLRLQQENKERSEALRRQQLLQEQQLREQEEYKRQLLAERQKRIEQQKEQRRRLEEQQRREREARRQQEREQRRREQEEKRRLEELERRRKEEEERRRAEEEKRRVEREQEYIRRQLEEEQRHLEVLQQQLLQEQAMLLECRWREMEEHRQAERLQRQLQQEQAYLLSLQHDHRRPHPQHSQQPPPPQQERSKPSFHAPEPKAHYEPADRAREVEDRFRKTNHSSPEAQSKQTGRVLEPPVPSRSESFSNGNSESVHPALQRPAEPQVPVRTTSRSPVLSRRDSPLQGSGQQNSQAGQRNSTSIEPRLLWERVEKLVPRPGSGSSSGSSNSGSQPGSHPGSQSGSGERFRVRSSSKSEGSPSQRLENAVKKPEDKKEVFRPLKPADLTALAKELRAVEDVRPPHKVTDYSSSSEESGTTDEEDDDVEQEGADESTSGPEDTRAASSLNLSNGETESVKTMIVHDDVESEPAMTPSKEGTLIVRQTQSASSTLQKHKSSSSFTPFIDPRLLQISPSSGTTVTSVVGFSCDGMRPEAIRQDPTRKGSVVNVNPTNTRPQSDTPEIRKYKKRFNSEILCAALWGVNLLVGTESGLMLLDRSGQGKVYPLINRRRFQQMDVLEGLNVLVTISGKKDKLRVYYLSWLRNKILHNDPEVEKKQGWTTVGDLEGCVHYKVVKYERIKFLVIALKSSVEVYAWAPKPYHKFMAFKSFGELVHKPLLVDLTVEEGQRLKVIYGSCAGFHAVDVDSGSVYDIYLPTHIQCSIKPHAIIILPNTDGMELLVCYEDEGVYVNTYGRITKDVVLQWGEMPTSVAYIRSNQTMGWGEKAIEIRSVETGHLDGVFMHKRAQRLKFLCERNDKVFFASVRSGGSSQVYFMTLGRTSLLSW
T3 sequence (Q05397 whole entry): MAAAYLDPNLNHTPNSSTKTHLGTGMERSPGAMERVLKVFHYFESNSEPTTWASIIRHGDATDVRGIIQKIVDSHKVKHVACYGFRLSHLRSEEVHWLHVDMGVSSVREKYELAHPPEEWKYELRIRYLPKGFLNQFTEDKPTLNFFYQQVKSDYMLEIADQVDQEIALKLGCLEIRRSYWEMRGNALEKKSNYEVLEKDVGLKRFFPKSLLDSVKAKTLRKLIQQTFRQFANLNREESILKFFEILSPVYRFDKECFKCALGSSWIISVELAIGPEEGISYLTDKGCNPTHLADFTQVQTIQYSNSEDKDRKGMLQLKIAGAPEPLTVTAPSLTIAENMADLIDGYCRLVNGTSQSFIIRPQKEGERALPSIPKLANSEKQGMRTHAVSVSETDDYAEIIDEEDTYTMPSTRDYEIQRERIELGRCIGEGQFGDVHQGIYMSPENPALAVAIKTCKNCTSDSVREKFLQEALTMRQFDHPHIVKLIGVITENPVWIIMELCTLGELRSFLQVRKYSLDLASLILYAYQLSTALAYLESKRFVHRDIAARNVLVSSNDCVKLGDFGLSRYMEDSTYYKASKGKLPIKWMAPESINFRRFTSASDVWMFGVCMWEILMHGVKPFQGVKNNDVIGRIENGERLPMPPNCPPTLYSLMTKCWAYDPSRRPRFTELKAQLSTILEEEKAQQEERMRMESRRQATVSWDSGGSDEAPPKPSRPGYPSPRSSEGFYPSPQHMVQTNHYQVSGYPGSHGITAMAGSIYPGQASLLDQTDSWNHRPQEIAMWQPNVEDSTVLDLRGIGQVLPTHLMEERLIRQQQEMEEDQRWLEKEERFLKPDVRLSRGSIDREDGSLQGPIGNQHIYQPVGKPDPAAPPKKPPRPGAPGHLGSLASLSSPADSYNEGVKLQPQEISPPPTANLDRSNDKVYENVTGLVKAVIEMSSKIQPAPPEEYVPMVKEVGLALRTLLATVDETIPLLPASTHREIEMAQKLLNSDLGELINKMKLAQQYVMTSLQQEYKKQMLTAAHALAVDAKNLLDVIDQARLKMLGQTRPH
Chain of LTK (P29376 whole entry): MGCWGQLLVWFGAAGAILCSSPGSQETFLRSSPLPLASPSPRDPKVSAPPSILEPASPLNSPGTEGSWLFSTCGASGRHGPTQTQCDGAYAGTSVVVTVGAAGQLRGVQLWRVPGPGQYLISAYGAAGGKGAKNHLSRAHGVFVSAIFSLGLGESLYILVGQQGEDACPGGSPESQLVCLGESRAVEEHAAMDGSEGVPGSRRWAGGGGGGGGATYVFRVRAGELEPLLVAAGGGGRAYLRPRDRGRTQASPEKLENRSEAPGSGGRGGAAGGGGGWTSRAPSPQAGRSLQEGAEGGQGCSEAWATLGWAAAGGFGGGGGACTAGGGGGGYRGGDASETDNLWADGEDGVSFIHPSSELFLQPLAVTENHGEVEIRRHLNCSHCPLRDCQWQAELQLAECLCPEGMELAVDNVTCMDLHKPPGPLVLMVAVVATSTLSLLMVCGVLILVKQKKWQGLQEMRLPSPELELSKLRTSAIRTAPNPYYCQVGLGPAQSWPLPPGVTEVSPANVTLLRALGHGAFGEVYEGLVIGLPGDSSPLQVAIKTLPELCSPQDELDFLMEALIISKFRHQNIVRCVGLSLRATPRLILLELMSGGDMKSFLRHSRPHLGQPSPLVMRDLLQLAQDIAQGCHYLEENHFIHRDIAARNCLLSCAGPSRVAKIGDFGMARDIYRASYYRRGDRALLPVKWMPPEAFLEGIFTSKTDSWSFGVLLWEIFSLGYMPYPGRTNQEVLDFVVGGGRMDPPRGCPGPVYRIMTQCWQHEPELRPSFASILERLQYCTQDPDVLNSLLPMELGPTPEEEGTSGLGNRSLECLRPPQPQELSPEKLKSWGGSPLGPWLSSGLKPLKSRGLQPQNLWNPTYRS
Chain of CSK (P41240 whole entry): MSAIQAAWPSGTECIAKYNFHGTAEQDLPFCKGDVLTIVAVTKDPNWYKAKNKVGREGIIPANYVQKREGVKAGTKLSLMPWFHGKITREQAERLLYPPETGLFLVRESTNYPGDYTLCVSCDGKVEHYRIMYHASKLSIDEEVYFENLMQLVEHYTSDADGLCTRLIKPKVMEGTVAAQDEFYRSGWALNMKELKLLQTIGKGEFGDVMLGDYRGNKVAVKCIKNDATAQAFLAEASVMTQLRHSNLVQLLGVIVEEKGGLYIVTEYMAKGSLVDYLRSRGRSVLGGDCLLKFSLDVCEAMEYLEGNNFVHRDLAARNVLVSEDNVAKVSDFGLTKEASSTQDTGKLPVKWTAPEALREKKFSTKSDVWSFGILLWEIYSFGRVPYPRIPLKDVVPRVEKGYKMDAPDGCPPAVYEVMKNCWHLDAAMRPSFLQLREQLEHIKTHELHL
Chain of PIK3CA(C420R) (P42336 whole entry C420R): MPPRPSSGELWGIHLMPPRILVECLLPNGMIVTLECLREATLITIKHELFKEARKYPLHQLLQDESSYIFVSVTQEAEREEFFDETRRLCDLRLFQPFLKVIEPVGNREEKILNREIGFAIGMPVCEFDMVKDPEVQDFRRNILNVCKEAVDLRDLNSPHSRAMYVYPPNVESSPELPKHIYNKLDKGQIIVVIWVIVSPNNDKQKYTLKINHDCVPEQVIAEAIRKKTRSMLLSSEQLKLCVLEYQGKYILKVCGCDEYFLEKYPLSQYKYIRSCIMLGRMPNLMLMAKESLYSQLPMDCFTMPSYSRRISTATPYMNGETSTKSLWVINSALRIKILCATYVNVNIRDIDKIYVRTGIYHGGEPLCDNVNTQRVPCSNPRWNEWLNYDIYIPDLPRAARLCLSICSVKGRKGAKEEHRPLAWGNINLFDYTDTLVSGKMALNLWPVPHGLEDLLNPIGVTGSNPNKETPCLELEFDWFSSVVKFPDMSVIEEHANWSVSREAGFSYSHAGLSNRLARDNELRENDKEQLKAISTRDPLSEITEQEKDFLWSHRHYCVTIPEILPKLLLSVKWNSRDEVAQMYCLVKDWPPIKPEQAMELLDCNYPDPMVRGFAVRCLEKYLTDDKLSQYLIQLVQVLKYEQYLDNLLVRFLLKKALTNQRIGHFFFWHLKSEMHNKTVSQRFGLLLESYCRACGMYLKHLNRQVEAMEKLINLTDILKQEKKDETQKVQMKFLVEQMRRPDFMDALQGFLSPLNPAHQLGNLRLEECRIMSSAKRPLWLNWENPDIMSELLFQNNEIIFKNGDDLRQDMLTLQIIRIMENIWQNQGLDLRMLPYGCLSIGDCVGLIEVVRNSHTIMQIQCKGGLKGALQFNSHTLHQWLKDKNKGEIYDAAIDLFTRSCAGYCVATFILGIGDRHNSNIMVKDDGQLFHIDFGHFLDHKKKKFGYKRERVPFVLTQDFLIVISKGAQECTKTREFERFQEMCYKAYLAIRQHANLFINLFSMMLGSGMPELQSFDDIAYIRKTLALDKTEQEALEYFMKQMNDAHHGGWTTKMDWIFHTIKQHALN
T5 sequence (Q16539 whole entry): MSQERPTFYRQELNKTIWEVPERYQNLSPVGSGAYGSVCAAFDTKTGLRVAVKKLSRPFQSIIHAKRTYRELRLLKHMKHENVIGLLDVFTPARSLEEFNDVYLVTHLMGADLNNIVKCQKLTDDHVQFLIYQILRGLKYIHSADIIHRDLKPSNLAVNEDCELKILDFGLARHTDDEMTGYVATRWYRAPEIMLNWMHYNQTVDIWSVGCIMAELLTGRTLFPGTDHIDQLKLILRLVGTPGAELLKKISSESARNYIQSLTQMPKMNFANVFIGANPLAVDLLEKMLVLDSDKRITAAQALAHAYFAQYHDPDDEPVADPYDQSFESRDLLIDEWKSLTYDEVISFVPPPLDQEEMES

On to `CNS(=O)(=O)c1ccc(N(C)C)c(Nc2ncnc3cc(OC)c(OC)cc23)c1` [compound 7, 3-((6,7-dimethoxyquinazolin-4-yl)amino)-4-(dimethylamino)-N-methylbenzenesulfonamide], for which the inhibition (in general, how much of the control response was suppressed) at 1 µM is 6% in [1]; 0% in test [2]; 1% at CDK3; 6% at CDK7; 0% on CDK8; 0% at CSK. Also, the inhibition at 1 µM on CSNK1A1 was 0%; on CSNK1G3 it was 11%; on DAPK3, 9%; in test [3], 0%; on EPHA2, 0%; at FAK, 8%. Moreover, the inhibition at 1 µM on FGR is 0%; on LTK it was 44%; on MAP4K2, 41%; at MAP4K4, 0%; at NLK it was 24%; at PAK4, 0%. Also, the inhibition at 1 µM on PAK7 amounted to 0%; at PIK3CA(C420R), 5%; on RIPK2, 28%; at SLK it was 0%; on TRPM6, 25%; on p38-alpha, 0%.

For the origin of these results see publication PMC7180948, “New Insights into 4-Anilinoquinazolines as Inhibitors of Cardiac Troponin I–Interacting Kinase (TNNi3K)” (Molecules, 2020).
